Active and inactive are the calls of the source. Rule as the data show it, for most assays here: actives have a measured Kd and inactives only a lower limit.
target: Serine/threonine-protein kinase B-raf (Homo sapiens, UniProt P15056)
Also: in the data inactive means no Kd found up to 30 µM.

Sequence of Serine/threonine-protein kinase B-raf (P15056 whole entry): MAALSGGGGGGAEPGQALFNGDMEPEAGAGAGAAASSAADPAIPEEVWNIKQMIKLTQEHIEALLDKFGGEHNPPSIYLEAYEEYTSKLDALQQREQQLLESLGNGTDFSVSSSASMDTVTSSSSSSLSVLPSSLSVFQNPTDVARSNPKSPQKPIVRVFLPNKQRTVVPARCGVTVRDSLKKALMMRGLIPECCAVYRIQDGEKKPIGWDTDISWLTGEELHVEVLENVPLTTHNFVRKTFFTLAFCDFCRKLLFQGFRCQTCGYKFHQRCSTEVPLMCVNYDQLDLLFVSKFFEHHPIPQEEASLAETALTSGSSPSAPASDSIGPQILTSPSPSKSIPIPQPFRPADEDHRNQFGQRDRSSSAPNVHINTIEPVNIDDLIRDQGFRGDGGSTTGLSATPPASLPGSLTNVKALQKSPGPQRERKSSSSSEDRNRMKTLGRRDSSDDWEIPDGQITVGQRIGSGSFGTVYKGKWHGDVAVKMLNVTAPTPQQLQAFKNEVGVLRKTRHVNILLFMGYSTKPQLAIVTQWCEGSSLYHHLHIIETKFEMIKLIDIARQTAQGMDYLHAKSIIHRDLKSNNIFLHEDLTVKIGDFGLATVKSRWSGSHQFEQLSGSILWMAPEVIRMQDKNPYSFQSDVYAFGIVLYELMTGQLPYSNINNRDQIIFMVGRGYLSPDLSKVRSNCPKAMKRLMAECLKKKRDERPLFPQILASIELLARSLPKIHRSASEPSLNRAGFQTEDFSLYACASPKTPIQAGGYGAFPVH

Cc1nc(N)sc1-c1ccnc(Nc2ccc(N3CCOCC3)cc2)n1 [CYC-116] was tested. Which Kd did it give?
Its Kd is > 30 µM (inactive).

CCc1cnn2c(NCc3ccc[n+]([O-])c3)cc(N3CCCC[C@H]3CCO)nc12 [DINACICLIB] was tested. Which Kd did it give?
The Kd was > 30 µM (inactive).

Cc1cc(Nc2cc(N3CCN(C)CC3)nc(/C=C/c3ccccc3)n2)n[nH]1 [ENMD-2076] was tested. Which Kd did it give?
The Kd was > 30 µM (inactive).

How did the Kd turn out when O=C1NC(=O)/C(=C/c2ccc3nccc(-c4ccncc4)c3c2)S1 [GSK-1059615] was run?
Its Kd is > 30 µM (inactive).

OCCn1cc(-c2cnc3nnn(Cc4ccc5ncccc5c4)c3n2)cn1 [PF-04217903] was tested. Which Kd did it give?
The Kd was > 30 µM (inactive).

For CNC(=O)c1ccc(C)c(-n2c(C)cc(OCc3ccc(F)cc3F)c(Br)c2=O)c1 [PH-797804], which Kd is on record?
Its Kd is > 30 µM (inactive).

target: T1, NUAK family SNF1-like kinase 2 (Homo sapiens, UniProt Q9H093)
T1 sequence (Q9H093 whole entry): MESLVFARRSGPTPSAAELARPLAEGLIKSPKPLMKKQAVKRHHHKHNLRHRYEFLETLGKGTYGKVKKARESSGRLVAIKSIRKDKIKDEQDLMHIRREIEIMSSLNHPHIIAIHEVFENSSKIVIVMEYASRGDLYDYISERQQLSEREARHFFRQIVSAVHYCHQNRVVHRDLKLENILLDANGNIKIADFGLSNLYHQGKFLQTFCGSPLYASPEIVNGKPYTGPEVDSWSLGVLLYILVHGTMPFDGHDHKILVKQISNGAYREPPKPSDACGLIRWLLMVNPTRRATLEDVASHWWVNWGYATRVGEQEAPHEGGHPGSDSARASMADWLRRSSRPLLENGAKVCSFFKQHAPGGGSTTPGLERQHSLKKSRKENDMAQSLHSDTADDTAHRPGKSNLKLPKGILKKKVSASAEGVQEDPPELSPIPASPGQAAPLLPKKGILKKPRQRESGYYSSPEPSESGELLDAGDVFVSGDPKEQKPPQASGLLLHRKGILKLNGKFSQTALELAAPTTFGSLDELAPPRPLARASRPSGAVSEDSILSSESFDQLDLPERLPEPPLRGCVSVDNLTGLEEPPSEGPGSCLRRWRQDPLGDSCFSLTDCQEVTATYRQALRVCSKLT

For Cc1nc(N)sc1-c1ccnc(Nc2ccc(N3CCOCC3)cc2)n1 [CYC-116], which Kd is on record?
Its Kd is 0.007 µM.

With CCc1cnn2c(NCc3ccc[n+]([O-])c3)cc(N3CCCC[C@H]3CCO)nc12 [DINACICLIB] as the compound, how does the Kd read?
The Kd was > 30 µM (inactive).

How did the Kd turn out when O=C1NC(=O)/C(=C/c2ccc3nccc(-c4ccncc4)c3c2)S1 [GSK-1059615] was run?
The Kd was > 30 µM (inactive).

OCCn1cc(-c2cnc3nnn(Cc4ccc5ncccc5c4)c3n2)cn1 [PF-04217903] was tested. Which Kd did it give?
The Kd was > 30 µM (inactive).

How did the Kd turn out when CNC(=O)c1ccc(C)c(-n2c(C)cc(OCc3ccc(F)cc3F)c(Br)c2=O)c1 [PH-797804] was run?
The Kd was > 30 µM (inactive).

target: DNA topoisomerase 2-beta (Homo sapiens, UniProt Q02880)
Sequence (Q02880 whole entry): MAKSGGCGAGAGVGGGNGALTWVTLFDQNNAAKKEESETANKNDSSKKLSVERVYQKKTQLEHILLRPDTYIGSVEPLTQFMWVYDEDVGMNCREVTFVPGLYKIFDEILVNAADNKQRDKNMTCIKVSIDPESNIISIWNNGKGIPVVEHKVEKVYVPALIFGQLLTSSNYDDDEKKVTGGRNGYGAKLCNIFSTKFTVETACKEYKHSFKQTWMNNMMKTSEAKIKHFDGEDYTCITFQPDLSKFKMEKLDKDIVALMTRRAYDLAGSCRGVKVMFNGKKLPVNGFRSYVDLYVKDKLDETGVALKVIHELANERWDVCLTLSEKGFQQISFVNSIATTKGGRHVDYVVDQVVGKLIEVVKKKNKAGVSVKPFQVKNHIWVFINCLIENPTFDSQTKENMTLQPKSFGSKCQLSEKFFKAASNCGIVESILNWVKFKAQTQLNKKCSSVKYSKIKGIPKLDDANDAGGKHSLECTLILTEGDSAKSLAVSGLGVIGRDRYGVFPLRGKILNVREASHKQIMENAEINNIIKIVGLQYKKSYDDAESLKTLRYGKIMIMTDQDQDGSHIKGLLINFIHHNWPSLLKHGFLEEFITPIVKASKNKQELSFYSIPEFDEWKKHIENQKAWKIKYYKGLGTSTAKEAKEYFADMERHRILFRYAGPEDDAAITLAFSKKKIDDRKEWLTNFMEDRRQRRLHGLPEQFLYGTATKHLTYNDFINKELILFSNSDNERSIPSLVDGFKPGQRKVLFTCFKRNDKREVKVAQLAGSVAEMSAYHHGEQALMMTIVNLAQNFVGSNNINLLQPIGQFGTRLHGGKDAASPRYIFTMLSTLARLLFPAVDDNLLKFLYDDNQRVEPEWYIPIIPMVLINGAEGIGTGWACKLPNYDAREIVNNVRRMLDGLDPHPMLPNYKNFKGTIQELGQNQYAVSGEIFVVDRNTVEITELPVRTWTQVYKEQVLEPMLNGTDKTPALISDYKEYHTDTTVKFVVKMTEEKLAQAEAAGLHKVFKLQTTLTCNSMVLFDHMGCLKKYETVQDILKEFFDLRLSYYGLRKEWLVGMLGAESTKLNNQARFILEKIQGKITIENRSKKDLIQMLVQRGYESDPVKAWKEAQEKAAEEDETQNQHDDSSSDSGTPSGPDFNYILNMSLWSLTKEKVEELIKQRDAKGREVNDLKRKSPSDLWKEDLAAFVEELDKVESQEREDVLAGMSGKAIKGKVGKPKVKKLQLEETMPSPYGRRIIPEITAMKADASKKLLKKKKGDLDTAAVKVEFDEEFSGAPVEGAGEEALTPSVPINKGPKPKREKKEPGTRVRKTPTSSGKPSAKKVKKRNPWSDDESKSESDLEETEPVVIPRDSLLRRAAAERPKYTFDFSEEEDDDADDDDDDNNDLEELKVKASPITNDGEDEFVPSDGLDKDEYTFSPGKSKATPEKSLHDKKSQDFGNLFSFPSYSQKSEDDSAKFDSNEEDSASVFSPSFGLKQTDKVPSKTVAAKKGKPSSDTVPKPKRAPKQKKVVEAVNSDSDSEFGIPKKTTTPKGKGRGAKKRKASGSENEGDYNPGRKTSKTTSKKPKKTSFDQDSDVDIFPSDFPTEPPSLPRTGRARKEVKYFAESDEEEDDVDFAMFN

For Cc1nc(N)sc1-c1ccnc(Nc2ccc(N3CCOCC3)cc2)n1 [CYC-116], which Kd is on record?
Its Kd is > 30 µM (inactive).

For CCc1cnn2c(NCc3ccc[n+]([O-])c3)cc(N3CCCC[C@H]3CCO)nc12 [DINACICLIB], which Kd is on record?
Its Kd is > 30 µM (inactive).

How did the Kd turn out when Cc1cc(Nc2cc(N3CCN(C)CC3)nc(/C=C/c3ccccc3)n2)n[nH]1 [ENMD-2076] was run?
The Kd was > 30 µM (inactive).

Which Kd does the source give for O=C1NC(=O)/C(=C/c2ccc3nccc(-c4ccncc4)c3c2)S1 [GSK-1059615] here?
Its Kd is > 30 µM (inactive).

Which Kd does the source give for OCCn1cc(-c2cnc3nnn(Cc4ccc5ncccc5c4)c3n2)cn1 [PF-04217903] here?
Its Kd is > 30 µM (inactive).

CNC(=O)c1ccc(C)c(-n2c(C)cc(OCc3ccc(F)cc3F)c(Br)c2=O)c1 [PH-797804] was tested. Which Kd did it give?
The Kd was > 30 µM (inactive).

target: T2, Acyl-CoA dehydrogenase family member 10 (Homo sapiens, UniProt Q6JQN1)
T2 sequence (Q6JQN1 whole entry): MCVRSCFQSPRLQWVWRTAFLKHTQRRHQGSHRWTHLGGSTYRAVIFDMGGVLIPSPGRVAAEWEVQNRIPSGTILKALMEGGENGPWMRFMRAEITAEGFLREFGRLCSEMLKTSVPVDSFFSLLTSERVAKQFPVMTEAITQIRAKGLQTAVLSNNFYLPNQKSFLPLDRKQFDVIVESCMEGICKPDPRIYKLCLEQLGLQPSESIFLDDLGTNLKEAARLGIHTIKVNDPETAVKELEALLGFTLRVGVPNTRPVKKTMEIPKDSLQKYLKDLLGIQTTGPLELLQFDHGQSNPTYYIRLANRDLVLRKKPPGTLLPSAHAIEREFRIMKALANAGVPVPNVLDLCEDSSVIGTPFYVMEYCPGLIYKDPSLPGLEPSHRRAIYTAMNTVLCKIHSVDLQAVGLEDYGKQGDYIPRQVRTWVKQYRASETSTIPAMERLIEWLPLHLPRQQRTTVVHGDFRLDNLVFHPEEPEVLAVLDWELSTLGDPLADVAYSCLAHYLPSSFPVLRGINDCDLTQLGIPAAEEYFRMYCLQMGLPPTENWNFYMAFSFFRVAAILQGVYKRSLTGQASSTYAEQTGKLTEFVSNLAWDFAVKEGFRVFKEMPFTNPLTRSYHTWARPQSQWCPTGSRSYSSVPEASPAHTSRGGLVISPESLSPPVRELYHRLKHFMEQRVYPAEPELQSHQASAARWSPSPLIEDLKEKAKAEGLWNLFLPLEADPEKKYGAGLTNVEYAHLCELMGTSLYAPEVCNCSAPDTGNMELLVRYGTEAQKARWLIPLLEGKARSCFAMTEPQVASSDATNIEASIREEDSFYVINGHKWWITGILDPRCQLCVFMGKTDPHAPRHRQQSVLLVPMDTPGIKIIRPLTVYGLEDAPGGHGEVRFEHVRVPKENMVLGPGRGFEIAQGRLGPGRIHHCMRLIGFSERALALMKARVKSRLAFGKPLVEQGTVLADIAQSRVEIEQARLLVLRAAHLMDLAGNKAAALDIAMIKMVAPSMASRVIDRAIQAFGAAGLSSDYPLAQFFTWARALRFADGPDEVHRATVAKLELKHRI

How did the Kd turn out when Cc1nc(N)sc1-c1ccnc(Nc2ccc(N3CCOCC3)cc2)n1 [CYC-116] was run?
Its Kd is 0.716 µM.

How did the Kd turn out when CCc1cnn2c(NCc3ccc[n+]([O-])c3)cc(N3CCCC[C@H]3CCO)nc12 [DINACICLIB] was run?
The Kd was > 30 µM (inactive).

Which Kd does the source give for Cc1cc(Nc2cc(N3CCN(C)CC3)nc(/C=C/c3ccccc3)n2)n[nH]1 [ENMD-2076] here?
Its Kd is > 30 µM (inactive).

Which Kd does the source give for OCCn1cc(-c2cnc3nnn(Cc4ccc5ncccc5c4)c3n2)cn1 [PF-04217903] here?
Its Kd is > 30 µM (inactive).

target: Mitogen-activated protein kinase kinase kinase kinase 4 (Homo sapiens, UniProt O95819)
Sequence (O95819 whole entry): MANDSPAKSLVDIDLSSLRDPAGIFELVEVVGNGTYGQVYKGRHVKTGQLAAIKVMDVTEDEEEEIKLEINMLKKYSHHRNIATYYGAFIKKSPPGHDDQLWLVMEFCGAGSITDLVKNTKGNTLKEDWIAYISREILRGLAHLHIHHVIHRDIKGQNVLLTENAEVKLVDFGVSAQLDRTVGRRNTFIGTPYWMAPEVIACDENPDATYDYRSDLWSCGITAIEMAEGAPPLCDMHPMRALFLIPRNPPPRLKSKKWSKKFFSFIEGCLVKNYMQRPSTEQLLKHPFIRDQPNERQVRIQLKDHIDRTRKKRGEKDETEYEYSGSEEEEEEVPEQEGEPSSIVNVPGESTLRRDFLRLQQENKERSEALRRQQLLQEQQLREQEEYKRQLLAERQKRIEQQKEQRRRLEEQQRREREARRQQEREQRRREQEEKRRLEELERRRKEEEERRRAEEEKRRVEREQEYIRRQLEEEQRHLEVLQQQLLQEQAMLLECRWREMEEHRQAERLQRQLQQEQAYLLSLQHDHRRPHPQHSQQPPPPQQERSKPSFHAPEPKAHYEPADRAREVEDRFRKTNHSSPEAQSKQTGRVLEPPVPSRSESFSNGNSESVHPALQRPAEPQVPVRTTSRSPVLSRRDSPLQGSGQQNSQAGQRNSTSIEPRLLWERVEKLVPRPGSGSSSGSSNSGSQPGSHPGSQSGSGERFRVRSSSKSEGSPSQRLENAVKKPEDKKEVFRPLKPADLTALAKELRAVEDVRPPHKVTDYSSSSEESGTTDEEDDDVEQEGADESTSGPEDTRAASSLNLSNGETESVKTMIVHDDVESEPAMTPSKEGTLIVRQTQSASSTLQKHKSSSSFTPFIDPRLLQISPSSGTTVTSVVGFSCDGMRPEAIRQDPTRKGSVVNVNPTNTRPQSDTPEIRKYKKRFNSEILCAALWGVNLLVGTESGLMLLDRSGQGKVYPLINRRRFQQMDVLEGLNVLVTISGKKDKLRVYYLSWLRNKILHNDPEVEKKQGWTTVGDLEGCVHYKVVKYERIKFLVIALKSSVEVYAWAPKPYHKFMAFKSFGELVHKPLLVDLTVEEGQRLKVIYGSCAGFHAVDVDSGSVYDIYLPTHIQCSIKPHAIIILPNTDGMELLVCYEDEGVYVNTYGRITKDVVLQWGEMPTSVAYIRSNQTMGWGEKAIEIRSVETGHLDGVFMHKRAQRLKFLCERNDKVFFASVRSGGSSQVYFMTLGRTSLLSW

How did the Kd turn out when O=C1NC(=O)/C(=C/c2ccc3nccc(-c4ccncc4)c3c2)S1 [GSK-1059615] was run?
Its Kd is > 30 µM (inactive).

For CNC(=O)c1ccc(C)c(-n2c(C)cc(OCc3ccc(F)cc3F)c(Br)c2=O)c1 [PH-797804], which Kd is on record?
The Kd was > 30 µM (inactive).

target: Fibroblast growth factor receptor 1 (Homo sapiens, UniProt P11362)
Sequence (P11362 whole entry): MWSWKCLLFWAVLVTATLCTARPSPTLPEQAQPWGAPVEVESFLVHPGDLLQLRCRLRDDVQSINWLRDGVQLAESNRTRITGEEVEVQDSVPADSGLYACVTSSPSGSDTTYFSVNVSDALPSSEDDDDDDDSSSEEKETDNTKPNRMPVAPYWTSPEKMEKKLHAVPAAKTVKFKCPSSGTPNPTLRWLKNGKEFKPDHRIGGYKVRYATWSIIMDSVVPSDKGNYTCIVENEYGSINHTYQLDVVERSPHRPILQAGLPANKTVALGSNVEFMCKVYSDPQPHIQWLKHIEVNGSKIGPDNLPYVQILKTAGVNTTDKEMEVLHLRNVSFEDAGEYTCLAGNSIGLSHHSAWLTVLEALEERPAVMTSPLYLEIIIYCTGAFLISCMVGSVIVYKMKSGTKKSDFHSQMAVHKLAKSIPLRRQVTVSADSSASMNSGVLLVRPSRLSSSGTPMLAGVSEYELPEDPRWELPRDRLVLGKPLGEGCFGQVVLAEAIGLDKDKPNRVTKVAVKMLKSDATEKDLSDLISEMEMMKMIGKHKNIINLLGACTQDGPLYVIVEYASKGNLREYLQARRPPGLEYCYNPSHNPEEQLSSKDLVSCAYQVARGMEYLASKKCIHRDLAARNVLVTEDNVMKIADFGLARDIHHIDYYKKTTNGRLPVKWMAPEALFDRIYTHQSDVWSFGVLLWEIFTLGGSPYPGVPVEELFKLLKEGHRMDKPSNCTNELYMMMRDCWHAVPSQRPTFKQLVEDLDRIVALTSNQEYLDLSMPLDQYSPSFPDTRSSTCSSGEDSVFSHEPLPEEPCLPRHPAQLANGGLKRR

O=C1NC(=O)/C(=C/c2ccc3nccc(-c4ccncc4)c3c2)S1 [GSK-1059615] was tested. Which Kd did it give?
The Kd was > 30 µM (inactive).

Which Kd does the source give for CNC(=O)c1ccc(C)c(-n2c(C)cc(OCc3ccc(F)cc3F)c(Br)c2=O)c1 [PH-797804] here?
Its Kd is > 30 µM (inactive).

target: T3, Serine/threonine-protein kinase 4 (Homo sapiens, UniProt Q13043)
T3 sequence (Q13043 whole entry): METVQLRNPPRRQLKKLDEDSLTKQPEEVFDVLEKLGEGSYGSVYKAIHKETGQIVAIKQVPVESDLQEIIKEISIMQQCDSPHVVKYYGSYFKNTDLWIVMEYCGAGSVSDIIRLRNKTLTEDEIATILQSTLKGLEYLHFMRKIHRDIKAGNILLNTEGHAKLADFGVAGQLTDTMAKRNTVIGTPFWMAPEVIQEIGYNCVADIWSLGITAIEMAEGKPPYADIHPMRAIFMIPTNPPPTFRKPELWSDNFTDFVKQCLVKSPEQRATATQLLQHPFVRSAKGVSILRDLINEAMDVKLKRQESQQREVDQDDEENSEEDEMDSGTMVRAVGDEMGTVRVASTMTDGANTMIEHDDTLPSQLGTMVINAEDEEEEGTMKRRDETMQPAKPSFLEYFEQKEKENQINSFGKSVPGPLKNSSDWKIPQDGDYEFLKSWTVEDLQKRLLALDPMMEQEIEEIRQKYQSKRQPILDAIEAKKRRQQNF

For CCc1cnn2c(NCc3ccc[n+]([O-])c3)cc(N3CCCC[C@H]3CCO)nc12 [DINACICLIB], which Kd is on record?
The Kd was > 30 µM (inactive).

O=C1NC(=O)/C(=C/c2ccc3nccc(-c4ccncc4)c3c2)S1 [GSK-1059615] was tested. Which Kd did it give?
Its Kd is > 30 µM (inactive).

How did the Kd turn out when OCCn1cc(-c2cnc3nnn(Cc4ccc5ncccc5c4)c3n2)cn1 [PF-04217903] was run?
The Kd was > 30 µM (inactive).

CNC(=O)c1ccc(C)c(-n2c(C)cc(OCc3ccc(F)cc3F)c(Br)c2=O)c1 [PH-797804] was tested. Which Kd did it give?
The Kd was > 30 µM (inactive).

target: LIM domain kinase 1 (Homo sapiens, UniProt P53667)
Sequence (P53667 whole entry, the tested form may be a part): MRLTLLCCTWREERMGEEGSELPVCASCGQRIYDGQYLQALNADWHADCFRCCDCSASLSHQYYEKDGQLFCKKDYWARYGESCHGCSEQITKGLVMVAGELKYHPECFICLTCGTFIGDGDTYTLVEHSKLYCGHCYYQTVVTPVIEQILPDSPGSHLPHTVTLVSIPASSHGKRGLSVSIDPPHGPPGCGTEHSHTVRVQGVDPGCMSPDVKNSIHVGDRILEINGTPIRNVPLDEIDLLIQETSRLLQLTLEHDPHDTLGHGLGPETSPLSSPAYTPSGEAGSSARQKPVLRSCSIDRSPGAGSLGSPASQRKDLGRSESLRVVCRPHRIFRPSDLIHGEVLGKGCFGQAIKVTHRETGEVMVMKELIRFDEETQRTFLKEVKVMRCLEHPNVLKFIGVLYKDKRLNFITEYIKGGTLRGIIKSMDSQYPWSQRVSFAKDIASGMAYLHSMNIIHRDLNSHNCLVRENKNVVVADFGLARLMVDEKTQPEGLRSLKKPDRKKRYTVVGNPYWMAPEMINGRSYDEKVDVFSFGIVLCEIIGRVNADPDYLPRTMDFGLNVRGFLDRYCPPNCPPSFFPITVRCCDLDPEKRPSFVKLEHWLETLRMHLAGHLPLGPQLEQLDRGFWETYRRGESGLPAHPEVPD

For Cc1nc(N)sc1-c1ccnc(Nc2ccc(N3CCOCC3)cc2)n1 [CYC-116], which Kd is on record?
Its Kd is 0.984 µM (active).

Which Kd does the source give for O=C1NC(=O)/C(=C/c2ccc3nccc(-c4ccncc4)c3c2)S1 [GSK-1059615] here?
The Kd was > 30 µM (inactive).

How did the Kd turn out when CNC(=O)c1ccc(C)c(-n2c(C)cc(OCc3ccc(F)cc3F)c(Br)c2=O)c1 [PH-797804] was run?
Its Kd is > 30 µM (inactive).
